Assay results as given in patent US11384114B2, “Polymorphic forms of an oxysterol and methods of making them” (Warsaw Orthopedic, Inc., priority 2016, dated 2022).
“And” between values parts separate entries of the source, which are not always exact repeats. Equal entries are not always repeated.

Assays:
Assay type in all cases: physicochemical
[1] = Crystal form stability on vacuum oven drying; conditions: for Crystal Form (XRPD): solid after drying at 20, 35 or 50 C, solvent system differs per item
Procedure: 2.0 g anhydrous OXY133 was added to 10 mL isopropanol in a 100 mL polyblock reactor. The mixture was heated to 30° C. and then stirred at 30° C. for 45 minutes until the solids were dissolved completely. Acceptable heating temperatures ranged from 25° C. to 35° C. A polish filtration step can be added after dissolving the anhydrous OXY133. The mixture of anhydrous OXY133 and isopropanol was then cooled to 5° C. 20 mL of water was then added to the cooled mixture over 120 minutes at 5° C., resulting in the formation of a precipitate approximately one third of the way through the addition of water. The water addition can also be done in temperature ranges from about 0° C. to about 20° C. with no significant effect on the crystal structure. The resulting mixture of OXY133, isopropanol and water was then stirred at 5° C. for 18 hours. However, it is recommended that the resulting mixture could be mixed for at least 2 hours at 5° C. after the water addition was complete to ensure that all solids were precipitated from the solution. A white solid was collected by rapidly filtering the mixture and then washing the solid with 2.0 mL of an isopropanol:water mixture in a ratio of 1:2 v/v. The filtered and washed solids were then dried in a vacuum oven at 20° C. Acceptable temperatures for drying can range from about 20° C. to about 30° C.

[2] = Karl-Fisher (KF) water determination of isolated solid; conditions: for KF (water content determined by Karl Fischer water determination method): OXY133 polymorph sample, processing point and temperature differ per item of Table 15; for KF (Wt %) water content: solid isolated from acetone/water slurry at 0-25° C.
Text: Further, Table 15 below is a list of OXY133 polymorphs Forms A, B, C, D, E, F, G, H and I identified by a high performance liquid chromatography (HPLC) followed by charged aerosol detector (CAD) method. Table 15 also lists the starting products, the solvent system including solvent and anti-solvent, the temperature at which a polymorph was formed, the water content of the polymorph as determined by the Karl-Fisher (KF) method of water determination, and where available, the yield and purity of the resulting polymorph.

DSC/TGA water loss = assay: DSC/TGA water loss
Procedure: Differential scanning calorimetry (DSC) and thermo-gravimetric analysis (TGA) were also collected for some of the OXY133 polymorphs. The equipment utilized to collect the DSC/TGA data was a Mettler Toledo DSC 2 equipped with an aluminum 40 μL crimped pan with a pin hole and the ramp rate was 10° C./min. DSC/TGA thermograms identifying several OXY133 polymorphs are illustrated in FIGS. 20-25.

[3] = Stability of the crystal form on stirring in the acetone/water solvent system; conditions: slurry stirred in acetone/water (Form C at about 20° C.; Form F at about 20° C. or about 5° C.)
[4] = isolated solid, lot 2891-28-1, prepared from anhydrous OXY133 in isopropanol/water at 5° C. (Example 6)

| Structure (SMILES) | Crystal Form (XRPD) [1] | KF (water content determined by Karl Fischer water determination method) [2] | KF (Wt %) water content [2] | stability of crystal form in acetone/water solvent system [3] | further results |
| --- | --- | --- | --- | --- | --- |
| CCCCCC[C@](C)(O)[C@H]1CC[C@H]2[C@@H]3C[C@H](O)[C@H]4C[C@@H](O)CC[C@]4(C)[C@H]3CC[C@@]21C.O [Form A, (3S,5S,6S,8R,9S,10R,13S,14S,17S)-17-((S)-2-hydroxyoctan-2-yl)-10,13-dimethylhexadecahydro-1H-cyclopenta[a]phenanthrene-3,6-diol, monohydrate] | – | – | – | – | crystal form change on drying ([1]; drying at temperatures above about 20° C. to about 30° C.): slow conversion of OXY133 monohydrate to a different, unknown crystal form; KF [2, 4]: 4.07%; DSC/TGA (DSC/TGA water loss; [4]): 4.76%; water loss (DSC/TGA) (DSC/TGA water loss; ramp rate 10° C./min, listed as OXY133 monohydrate, monohydrate): 4.57% and 4.00% |
| CCCCCC[C@](C)(O)[C@H]1CC[C@H]2[C@@H]3C[C@H](O)[C@H]4C[C@@H](O)CC[C@]4(C)[C@H]3CC[C@@]21C [Form 2891-9-3] | Form A | 3.83% | 3.83 Wt % | – | – |
| CCCCCC[C@](C)(O)[C@H]1CC[C@H]2[C@@H]3C[C@H](O)[C@H]4C[C@@H](O)CC[C@]4(C)[C@H]3CC[C@@]21C [Form F] | – | – | – | somewhat stable | – |
| CCCCCC[C@](C)(O)[C@H]1CC[C@H]2[C@@H]3C[C@H](O)[C@H]4C[C@@H](O)CC[C@]4(C)[C@H]3CC[C@@]21C [Form 2891-8-3] | Form A | 3.25% | 3.25 Wt % | – | – |
| CCCCCC[C@](C)(O)[C@H]1CC[C@H]2[C@@H]3C[C@H](O)[C@H]4C[C@@H](O)CC[C@]4(C)[C@H]3CC[C@@]21C [Form C] | – | – | – | fairly stable | – |
| CCCCCC[C@](C)(O)[C@H]1CC[C@H]2[C@@H]3C[C@H](O)[C@H]4C[C@@H](O)CC[C@]4(C)[C@H]3CC[C@@]21C [Form 2891-10-3] | Form A | 4.02% | 4.02 Wt % | – | – |
